Laboratory results published in patent publication US10441588B2, “Methods and compositions for treating bacterial infection” (Curators of the University of Missouri, priority 2012, dated 2019).
Structures can show the parent of a compound that is named as a salt. Where two headings read alike, the source gives them in different places.

Assays:
S. aureus = S. aureus growth inhibition, optical density, test/control; format: cell-based, Staphylococcus aureus; conditions: Staphylococcus aureus, growth of bacteria test/control by optical density
S. aureus biofilm = S. aureus biofilm inhibition, optical density, test/control; format: cell-based, Staphylococcus aureus; conditions: Staphylococcus aureus, growth of biofilm test/control by optical density
[1] = 50 μM, read-out: S. aureus Biofilm Inhibition 50 μM vs. (−) Control
[2] = 5 μM, read-out: S. aureus Biofilm Inhibition 5 μM vs. (−) Control

Row | Structure (SMILES) | activity at 100 µM (S. aureus) [%] | activity at 100 µM (S. aureus biofilm) [%] | activity at 50 µM (S. aureus biofilm; [1]) [%] | other results
1 | C=CCn1c(SCc2cccc(OC)c2)nc2c(c1=O)C1(CCCCC1)Cc1ccccc1-2 [CCG-102485] | 114 | 49.5 |  | 
2 | C=CCn1c(SCc2ccc(NC(C)=O)cc2)nc2c(c1=O)C1(CCCCC1)Cc1ccccc1-2 [CCG-102491] | 84.8 | 75 |  | 
3 | C=CCn1c(SCCOC)nc2c(c1=O)C1(CCCCC1)Cc1ccccc1-2 [CCG-102493] | 72.1 | 66 |  | 
4 | C=CCn1c(SCCN(C)C)nc2c(c1=O)C1(CCCCC1)Cc1ccccc1-2 [CCG-102495] | 93 | 78.9 |  | 
5 | C=CCn1c(SC)nc2c(c1=O)C1(CCCCC1)Cc1ccccc1-2 [CCG-102620] | 95.3 | 76.5 |  | 
6 | C=CCn1c(OCC)nc2c(c1=O)C1(CCCCC1)Cc1ccccc1-2 [CCG-102622] | 77.7 | 68.6 |  | 
7 | C=CCn1c(SCc2ccccn2)nc2c(c1=O)C(C)(C)Cc1ccccc1-2 [CCG-203039] | 95.9 | 71 |  | 
8 | C=CCn1c(SCCO)nc2c(c1=O)C(C)(C)Cc1ccccc1-2 [CCG-203041] | 89.7 | 47.7 |  | 
9 | C=CCn1c(SCCOC)nc2c(c1=O)CC(C)c1ccccc1-2 (centres unmarked) [CCG-203574] | 73.8 | 46.5 |  | 
10 | CCn1c(SCCOC)nc2c(c1=O)C(C)(C)Cc1ccccc1-2 [CCG-203598] | 85.5 | 61 |  | 
11 | C=CCn1c(SCC)nc2c(c1=O)C(C)(C)Cc1ccc(OC)cc1-2 [CCG-203625] |  |  |  | activity at 10 µM (S. aureus biofilm): 51.3%
12 | COCCSc1nc(OCC2OCCO2)c2c(n1)-c1ccccc1CC2(C)C [CCG-203627] | 80.6 | 49.6 |  | 
13 | C=CCn1c(SCC)nc2c(c1=O)C(C)(C)Cc1c(OC)cccc1-2 [CCG-203629] | 66.7 | 35.1 |  | 
14 | C=CCn1c(SCC)nc2c(c1=O)C(C)(C)Cc1c(O)cccc1-2 [CCG-203631] | 76.7 | 31.1 |  | 
15 | C=CCn1c(SCC)nc2c(c1=O)C(C)(C)Cc1c(OCCOC)cccc1-2 [CCG-203633] | 76.2 | 54 |  | 
16 | CCSc1nc2c(c(=O)n1CCOC)C(C)(C)Cc1ccccc1-2 [CCG-203802, 2-(ethylthio)-3-(2-methoxyethyl)-5,5-dimethyl-5,6-dihydrobenzo[h]quinazolin-4(3H)-one] | 67.7 | 55.7 |  | 
17 | C=CCn1c(OCC)nc2c(c1=O)C(C)(C)Cc1ccccc1-2 [CCG-203803] | 81.9 | 76.8 |  | 
18 | COCCSc1nc2c(c(=O)n1CCOc1ccc(F)cc1)C(C)(C)Cc1ccccc1-2 [CCG-204027, 3-(2-(4-Fluorophenoxy)ethyl)-2-((2-methoxyethyl)thio)-5,5-dimethyl-5,6-dihydrobenzo-[h]quinazolin-4(3H)-one] | 108 | 74.8 |  | 
19 | COCCSc1nc(OCCOc2ccc(F)cc2)c2c(n1)-c1ccccc1CC2(C)C [CCG-204028, 4-(2-(4-Fluorophenoxy)ethoxy)-2-((2-methoxyethyl)thio)-5,5-dimethyl-5,6-dihydrobenzo[h]-quinazoline] | 113 | 70 |  | 
20 | COCCSc1nc2c(c(=O)n1CC1OCCO1)C(C)(C)Cc1ccccc1-2 [CCG-204029, 3-((1,3-Dioxolan-2-yl)methyl)-2-((2-methoxyethyl)thio)-5,5-dimethyl-5,6-dihydrobenzo[h]-quinazolin-4(3H)-one] | 94.3 | 63.6 |  | 

Row | Structure (SMILES) | activity at 100 µM (S. aureus) [%] | activity at 100 µM (S. aureus biofilm) [%] | activity at 50 µM (S. aureus biofilm; [1]) [%] | other results
21 | COCCSc1nc2c(c(=O)n1CCCC#N)C(C)(C)Cc1ccccc1-2 [CCG-204031, 4-(2-((2-Methoxyethyl)thio)-5,5-dimethyl-4-oxo-5,6-dihydrobenzo[h]quinazolin-3(4H)-yl)butanenitrile] | 98.5 | 59.2 |  | 
22 | COCCSc1nc2c(c(=O)n1Cc1ccc(OC)cc1)C(C)(C)Cc1ccccc1-2 [CCG-204036, 3-(4-Methoxybenzyl)-2-((2-methoxyethyl)thio)-5,5-dimethyl-5,6-dihydrobenzo[h]quin-azolin-4(3H)-one] | 112 | 76.5 |  | 
23 | COCCSc1nc(OCc2ccc(OC)cc2)c2c(n1)-c1ccccc1CC2(C)C [CCG-204037, 4-((4-Methoxybenzyl)oxy)-2-((2-methoxyethyl)thio)-5,5-dimethyl-5,6-dihydrobenzo[h]-quinazoline] | 110 | 65.7 |  | 
24 | COCCSc1nc(OCC(=O)c2ccc(F)c(F)c2)c2c(n1)-c1ccccc1CC2(C)C [CCG-204040, 1-(3,4-Difluorophenyl)-2-((2-((2-methoxyethyl)thio)-5,5-dimethyl-5,6-dihydrobenzo[h]-quinazolin-4-yl)oxy)ethanone] | 119 | 65.9 |  | 
25 | C=CCn1c(SCCOC)nc2c(c1=O)C(C)(C)Cc1cnccc1-2 [CCG-204041, 3-allyl-2-((2-methoxyethyl)thio)-5,5-dimethyl-5,6-dihydropyrido[3,4-h]quinazolin-4(3H)-one] | 90.2 | 75.7 |  | 
26 | C=CCn1c(SCC)nc2c(c1=O)C(C)(C)Cc1cc(OCC(=O)O)ccc1-2 [CCG-205434] |  | 32.5 |  | 
27 | C=CCn1c(SCCOC)nc2c(c1=O)C1(CCN(C(=O)OCC)CC1)Cc1ccccc1-2 [CCG-206233, Ethyl 3-allyl-2-((2-methoxyethyl)thio)-4-oxo-4,6-dihydro-3H-spiro[benzo[h]quinazoline-5,4′-piperidine]-1′-carboxylate] |  |  | 59.4 | 
28 | C=CCOc1nc(SCC)nc2c1C(C)(C)Cc1ccc(OC)cc1-2 [CCG-206358] |  | 70 |  | activity at 10 µM (S. aureus biofilm): 55.7%
29 | C=CCOc1nc(SCCOC)nc2c1C1(CCN(C(=O)CCCC)CC1)Cc1cc(OC)ccc1-2 [CCG-208863, 1-(4-(allyloxy)-8-methoxy-2-((2-methoxyethyl)thio)-6H-spiro[benzo[h]quinazoline-5,4′-piperidin]-1′-yl)pentan-1-one] |  |  | 68.6 | activity at 5 µM (S. aureus biofilm; [2]): 72.1%
30 | C=CCn1c(SCCOC)nc2c(c1=O)C1(CCN(C(=O)OC(C)(C)C)C1)Cc1cc(OC)ccc1-2 (centres unmarked) [CCG-208864, tert-butyl 3-allyl-8-methoxy-2-((2-methoxyethyl)thio)-4-oxo-4,6-dihydro-3H-spiro[benzo[h]quinazoline-5,3′-pyrrolidine]-1′-carboxylate] |  |  | 49.1 | activity at 5 µM (S. aureus biofilm; [2]): 49.5%
31 | C=CCn1c(SCCOC)nc2c(c1=O)C1(CCNC1)Cc1cc(OC)ccc1-2 (centres unmarked) [CCG-208865, 3-allyl-8-methoxy-2-((2-methoxyethyl)thio)-3H-spiro[benzo[h]quinazoline-5,3′-pyrrolidine]-4(6H)-one hydrochloride] |  |  |  | activity at 5 µM (S. aureus biofilm; read-out: S. aureus Biofilm Inhibition 5 μM vs. (−) Control, 5 μM): 80.3%; activity at 50 µM (S. aureus biofilm; read-out: S. aureus Biofilm Inhibition 50 μM vs. (−) Control, 50 μM): 65.2%
32 | C=CCn1c(SCCOC)nc2c(c1=O)C1(CCN(C)CC1)Cc1cc(OC)ccc1-2 [CCG-208981, 3-allyl-8-methoxy-2-((2-methoxyethyl)thio)-1′-methyl-3H-spiro[benzo[h]quinazoline-5,4′-piperidin]-4(6H)-one] |  |  | 70.6 | activity at 5 µM (S. aureus biofilm; [2]): 88.5%
33 | CCSc1nc(OC)c2c(n1)-c1cc(OC)ccc1CC2(C)C [CCG-211793, 2-(ethylthio)-4,9-dimethoxy-5,5-dimethyl-5,6-dihydrobenzo[h]quinazoline] |  |  | 72.2 | activity at 5 µM (S. aureus biofilm; [2]): 122%
34 | COc1ccc2c(c1)CC1(CCN(C(=O)OC(C)(C)C)CC1)c1c(OC)nc(SCC#N)nc1-2 [CCG-211810, tert-butyl 2-((cyanomethyl)thio)-4,8-dimethoxy-6H-spiro[benzo[h]quinazoline-5,4′-piperidine]-1′-carboxylate] |  |  | 75 | activity at 5 µM (S. aureus biofilm; [2]): 68.2%
35 | COc1ccc2c(c1)CC1(CCN(C(=O)OC(C)(C)C)CC1)c1c-2nc(SCC#N)n(C)c1=O [CCG-211811, tert-butyl 2-((cyanomethyl)thio)-8-methoxy-3-methyl-4-oxo-4,6-dihydro-3H-spiro[benzo[h]quinazoline-5,4′-piperidine]-1′-carboxylate] |  |  | 70.2 | activity at 5 µM (S. aureus biofilm; [2]): 67.8%
36 | COc1ccc2c(c1)CC1(CCN(C(=O)OC(C)(C)C)CC1)c1c(OCC#N)nc(SCC#N)nc1-2 [CCG-211812, tert-butyl 4-(cyanomethoxy)-2-((cyanomethyl)thio)-8-methoxy-6H-spiro[benzo[h]quinazoline-5,4′-piperidine]-1′-carboxylate] |  |  | 75 | activity at 5 µM (S. aureus biofilm; [2]): 75.2%
37 | C=CCn1c(SCCOC)nc2c(c1=O)C1(CCN(C(=O)NCC(=O)OCC)CC1)Cc1cc(OC)ccc1-2 [CCG-211972, ethyl (3-allyl-8-methoxy-2-((2-methoxyethyl)thio)-4-oxo-4,6-dihydro-3H-spiro[benzo[h]quinazoline-5,4′-piperidine]-1′-carbonyl)glycinate] |  |  | 68 | activity at 5 µM (S. aureus biofilm; [2]): 125%
38 | C=CCOc1nc(SCC#N)nc2c1C(C)(C)Cc1ccc(OC)cc1-2 [CCG-212010, 2-((4-(allyloxy)-9-methoxy-5,5-dimethyl-5,6-dihydrobenzo[h]quinazolin-2-yl)thio)acetonitrile] |  |  | 35 | activity at 5 µM (S. aureus biofilm; [2]): 55%
39 | COc1ccc2c(c1)-c1nc(SCC#N)nc(OCC#N)c1C(C)(C)C2 [CCG-212011, 2-((4-(cyanomethoxy)-9-methoxy-5,5-dimethyl-5,6-dihydrobenzo[h]quinazolin-2-yl)thio)acetonitrile] |  |  | 29 | activity at 5 µM (S. aureus biofilm; [2]): 48%
40 | COc1ccc2c(c1)-c1nc(SCC#N)n(CC#N)c(=O)c1C(C)(C)C2 [CCG-212012, 2-((3-(cyanomethyl)-9-methoxy-5,5-dimethyl-4-oxo-3,4,5,6-tetrahydrobenzo[h]quinazolin-2-yl)thio)acetonitrile] |  |  | 27 | activity at 5 µM (S. aureus biofilm; [2]): 55%
